Experimental data reported in PubChem BioAssay AID2060602 (Molecular Pharmacology Branch, DTP, NCI, 2025).
Values belong to the molecule of their own block, whether it stands above or below them.

Test system: 648629-189-R-J1-PDC complex spheroids viability
Test: Anticancer human tumor 648629-189-R-J1-PDC patient-derived bladder carcinoma cell line growth inhibition [CLK]
Conditions: for IC50: curve of first compound; for viability, T/C: stronger effect = lower value
In short: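 Patient-derived tumor cells grown as complex spheroids with HUVEC endothelial cells and mesenchymal stem cells, treated with drug combinations. Concentrations descend in half-log steps from near clinical Cmax, or from 10 microM if Cmax unknown.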

[1] = second compound 0.0316 µM, first compound 0.0316 µM
[2] = second compound 0.0316 µM, first compound 0.1 µM
[3] = second compound 0.0316 µM, first compound 0.316 µM
[4] = second compound 0.0316 µM, first compound 1 µM
[5] = second compound 0.0316 µM, first compound 3.16 µM
[6] = second compound 0.0316 µM, first compound 10 µM
[7] = second compound 0.1 µM, first compound 0.0316 µM
[8] = second compound 0.1 µM, first compound 0.1 µM
[9] = second compound 0.1 µM, first compound 0.316 µM
[10] = second compound 0.1 µM, first compound 1 µM
[11] = second compound 0.1 µM, first compound 3.16 µM
[12] = second compound 0.1 µM, first compound 10 µM
[13] = second compound 0.316 µM, first compound 0.0316 µM
[14] = second compound 0.316 µM, first compound 0.1 µM
[15] = second compound 0.316 µM, first compound 0.316 µM
[16] = second compound 0.316 µM, first compound 1 µM
[17] = second compound 0.316 µM, first compound 3.16 µM
[18] = second compound 0.316 µM, first compound 10 µM
[19] = second compound 1 µM, first compound 0.0316 µM
[20] = second compound 1 µM, first compound 0.1 µM
[21] = second compound 1 µM, first compound 0.316 µM
[22] = second compound 1 µM, first compound 1 µM
[23] = second compound 1 µM, first compound 3.16 µM
[24] = second compound 1 µM, first compound 10 µM
[25] = second compound 3.16 µM, first compound 0.0316 µM
[26] = second compound 3.16 µM, first compound 0.1 µM
[27] = second compound 3.16 µM, first compound 0.316 µM
[28] = second compound 3.16 µM, first compound 1 µM
[29] = second compound 3.16 µM, first compound 3.16 µM
[30] = second compound 3.16 µM, first compound 10 µM
[31] = second compound 10 µM, first compound 0.0316 µM
[32] = second compound 10 µM, first compound 0.1 µM
[33] = second compound 10 µM, first compound 0.316 µM
[34] = second compound 10 µM, first compound 1 µM
[35] = second compound 10 µM, first compound 3.16 µM
[36] = second compound 10 µM, first compound 10 µM
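Wherever viability, T/C is given: drug exposure lasted seven days before viability readout; 100% = DMSO vehicle control wells.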

IC50 (second compound 0.0316 µM): > 10000 nM | IC50 (second compound 0.1 µM): > 10000 nM | IC50 (second compound 0.316 µM): < 31.6 nM | IC50 (second compound 1 µM): < 31.6 nM | IC50 (second compound 3.16 µM): < 31.6 nM | IC50 (second compound 10 µM): < 31.6 nM
SMILES: C=CC(=O)N1CCN(c2nc(=O)n(-c3c(C)ccnc3C(C)C)c3nc(-c4c(O)cccc4F)c(F)cc23)C(C)C1 (stereo unspecified) + CNC(=O)c1ccc(Nc2nc(OC3CCCC3)c3c(-c4ccc5nc(C)oc5c4)c[nH]c3n2)c(OC)c1
viability, T/C [1]: 120% | viability, T/C [2]: 110% | viability, T/C [3]: 115% | viability, T/C [4]: 108% | viability, T/C [5]: 115% | viability, T/C [6]: 110% | viability, T/C [7]: 91.9% | viability, T/C [8]: 94.6% | viability, T/C [9]: 90.1% | viability, T/C [10]: 87.9% | viability, T/C [11]: 93.5% | viability, T/C [12]: 82.5% | viability, T/C [13]: 27% | viability, T/C [14]: 24.8% | viability, T/C [15]: 29.8% | viability, T/C [16]: 39.2% | viability, T/C [17]: 42.6% | viability, T/C [18]: 66.2% | viability, T/C [19]: 23.5% | viability, T/C [20]: 26.6% | viability, T/C [21]: 23.5% | viability, T/C [22]: 24.2% | viability, T/C [23]: 26.9% | viability, T/C [24]: 46.2% | viability, T/C [25]: 17.9% | viability, T/C [26]: 22.7% | viability, T/C [27]: 20.4% | viability, T/C [28]: 22.6% | viability, T/C [29]: 27.7% | viability, T/C [30]: 31.8% | viability, T/C [31]: 19.7% | viability, T/C [32]: 20.5% | viability, T/C [33]: 20.3% | viability, T/C [34]: 27.3% | viability, T/C [35]: 33.2% | viability, T/C [36]: 28.5%

IC50 (second compound 0.0316 µM): 6250 nM | IC50 (second compound 0.1 µM): 5910 nM | IC50 (second compound 0.316 µM): < 31.6 nM | IC50 (second compound 1 µM): < 31.6 nM | IC50 (second compound 3.16 µM): < 31.6 nM | IC50 (second compound 10 µM): < 31.6 nM
SMILES: CCCS(=O)(=O)Nc1ccc(F)c(C(=O)c2c[nH]c3ncc(-c4ccc(Cl)cc4)cc23)c1F + CNC(=O)c1ccc(Nc2nc(OC3CCCC3)c3c(-c4ccc5nc(C)oc5c4)c[nH]c3n2)c(OC)c1
viability, T/C [1]: 117% | viability, T/C [2]: 104% | viability, T/C [3]: 111% | viability, T/C [4]: 89.9% | viability, T/C [5]: 98.7% | viability, T/C [6]: 18.2% | viability, T/C [7]: 75.2% | viability, T/C [8]: 83.9% | viability, T/C [9]: 94.8% | viability, T/C [10]: 94.5% | viability, T/C [11]: 105% | viability, T/C [12]: 15.8% | viability, T/C [13]: 27.9% | viability, T/C [14]: 24.1% | viability, T/C [15]: 33.6% | viability, T/C [16]: 31.2% | viability, T/C [17]: 27.6% | viability, T/C [18]: 7.72% | viability, T/C [19]: 19.7% | viability, T/C [20]: 20.6% | viability, T/C [21]: 23.2% | viability, T/C [22]: 17.9% | viability, T/C [23]: 21% | viability, T/C [24]: 9.33% | viability, T/C [25]: 16.6% | viability, T/C [26]: 21.2% | viability, T/C [27]: 19.1% | viability, T/C [28]: 20.2% | viability, T/C [29]: 20.9% | viability, T/C [30]: 11.3% | viability, T/C [31]: 20.6% | viability, T/C [32]: 21% | viability, T/C [33]: 19.1% | viability, T/C [34]: 18.9% | viability, T/C [35]: 18.7% | viability, T/C [36]: 8.45%

IC50 (second compound 0.0316 µM): 1790 nM | IC50 (second compound 0.1 µM): 1840 nM | IC50 (second compound 0.316 µM): < 31.6 nM | IC50 (second compound 1 µM): < 31.6 nM | IC50 (second compound 3.16 µM): < 31.6 nM | IC50 (second compound 10 µM): < 31.6 nM
SMILES: COC1C=CCC(C)C(C)S(=O)(=O)NC(=O)c2ccc3c(c2)N(CC2CCC21)CC1(CCCc2cc(Cl)ccc21)CO3 (stereo unspecified) + CNC(=O)c1ccc(Nc2nc(OC3CCCC3)c3c(-c4ccc5nc(C)oc5c4)c[nH]c3n2)c(OC)c1
viability, T/C [1]: 107% | viability, T/C [2]: 89% | viability, T/C [3]: 91.6% | viability, T/C [4]: 80.7% | viability, T/C [5]: 20.1% | viability, T/C [6]: 4.12% | viability, T/C [7]: 82.8% | viability, T/C [8]: 97.5% | viability, T/C [9]: 83.8% | viability, T/C [10]: 88.5% | viability, T/C [11]: 16.3% | viability, T/C [12]: 4.69% | viability, T/C [13]: 27.2% | viability, T/C [14]: 23.6% | viability, T/C [15]: 24.2% | viability, T/C [16]: 14% | viability, T/C [17]: 8.44% | viability, T/C [18]: 2.86% | viability, T/C [19]: 19.5% | viability, T/C [20]: 20.7% | viability, T/C [21]: 16.3% | viability, T/C [22]: 10.1% | viability, T/C [23]: 6.11% | viability, T/C [24]: 3.77% | viability, T/C [25]: 21.5% | viability, T/C [26]: 18.3% | viability, T/C [27]: 16.7% | viability, T/C [28]: 10.5% | viability, T/C [29]: 6.62% | viability, T/C [30]: 3.31% | viability, T/C [31]: 17.1% | viability, T/C [32]: 16.5% | viability, T/C [33]: 15.2% | viability, T/C [34]: 11.4% | viability, T/C [35]: 6.23% | viability, T/C [36]: 3.81%
